This note sets out measurements from US20230106583A1, “HETEROARYL COMPOUNDS” (Vivace Therapeutics, Inc., priority 2019, published 2023).

Structures are written as SMILES. pIC50: −log10 of the molar value. A value given as a limit tells only on which side of the number the result lay.

The test deals with HEK293T cells stably transfected with 8XTBD luciferase reporter and pRLTK. The test can be described thus: YAP Reporter Assay (8XTBD-driven firefly luciferase). Type of test: cell-based. The settings on record: Homo sapiens, HEK-293T; HEK293T 8XTBD luciferase reporter; 24-hr incubation with compounds; top concentration 3 μM, 10 points. The protocol: HEK293T cells stably transfected with 8XTBD luciferase reporter and pRLTK in 384-well plates were treated with the test compounds, starting from 3 μM (final concentration in assay plate), 1:3 dilution, and 10 points in quadruplicates. Post 24-hr incubation with compounds at 37° C. and 5% CO2, cells were lysed and 8XTBD-driven firefly luciferase and control TK-driven renilla luciferase activities were measured using Promega Dual-Luciferase Reporter Assay System.
Reagents: The reagents used for this study are: DMEM: Invitrogen #11960077, Dual-Glo Luciferase Assay System: Promega-E2980, Puromycin Dihydrochloride: Invitrogen-A1113803, 384-well plate: PerkinElmer-6007480, L-GLUTAMINE: Invitrogen-25030164, Hygromycin B: Invitrogen-10687010, and Penicillin-Streptomycin: Merk-TMS-AB2-C
Media: The media used for this assay were: Culture Medium: DMEM+1 ug/mL puromycin+200 ug/mL hygromycin (with 10% FBS+1 mM L-glutamine); and Assay Medium: DMEM (with 10% FBS+1 mM L-glutamine+1×P/S).
Cell Plating: The appropriate media was warmed at 37° C. by water bath: Culture Medium, Assay Medium, 1*D-PBS, 0.05% trypsin-EDTA. The cells were trypsinized after removing all media, then washed with 1*sterile D-PBS and then with 2 ml 0.05% trypsin-EDTA. The cells were then incubated at RT for one minute. Then 10 ml/75 cm2 flask Assay Medium was added to each flask. Using a 10 ml pipette, the cells were then gently resuspended in the media, until the clumps completely disappeared. The cells were then transferred into 50 ml centrifuge tubes and were centrifuged at 800 rpm for 5 mins. The medium was removed and the cells were resuspended with Assay Medium. An aliquot of cells was used to count the cell density (cells/ml). The cell suspension was then diluted with Assay Medium to a concentration of 6×10^4 cells/ml. 50 ul cells suspension was then plated to 384-well plate (PerkinElmer-6007480), 3×10^3 cells/well and the cells were incubated in an incubator at 37° C., 5% CO2.
Compound Treatment: In the afternoon (incubation of the plate with 3-4 hrs), the test compounds were added by Echo, starting from 3 uM (final concentration in the assay plate), 1:3 dilution, 10 points, quadruplicates. The plate was placed at 37° C., 5% CO2 incubator for 24 hrs.
Detection: The Dual-Glo Luciferase Reagent was prepared by transferring the contents of one bottle of Dual-Glo Luciferase Buffer to one bottle of Dual-Glo Luciferase Substrate to create the Dual-Glo Luciferase Reagent. Mixing was performed by inversion until the substrate was thoroughly dissolved. After mixing, the reagent was aliquoted into 15 ml tubes. In the afternoon (24 hrs post compound treatment), the DMEM+medium in the 384 well plates were aspirated by Microplate Washer.
Measuring firefly luciferase activity: 20 ul Dual-Glo Luciferase Reagent was added to the 384-well plates. The plates were protected from light to prevent interference with the assay. The plates were shaken for 1 min followed centrifuging plates at 1000 rpm for 30 seconds. After waiting at least 10 minutes, the firefly luminescence was measured by Envision.
Measuring renilla luciferase activity: 20 ul Stop-Glo Reagent was added to the 384-well plates. The plates were shaken for 1 min and then centrifuged at 1000 rpm for 30 seconds. After waiting at least 10 minutes, the renilla luminescence was measured by Envision.
Compound IC50 and maximum inhibition on the firefly luciferase and renilla luciferase activities were reported separately.
On the technique in general: In a reporter assay the amount or activity of a reporter protein is the signal.
The term pIC50 denotes the negative decadic logarithm of the IC50, by convention in mol/L. As for `CC1(c2nnc(-c3nccnc3Nc3ccc(C(F)(F)F)cc3)o2)CCNC1=O` (stereo not drawn) [Compound 20, 3-methyl-3-{5-[3-(4-trifluoromethyl-phenylamino)-pyrazin-2-yl]-[1,3,4]oxadiazol-2-yl}-pyrrolidin-2-one], the pIC50 was not below 7.00. For `CC[C@]1(c2nnc(-c3cccnc3Nc3ccc(S(F)(F)(F)(F)F)cc3)o2)CCNC1=O` [Compound 23, (3R)-3-ethyl-3-[5-[2-[4-(pentafluoro-λ^6-sulfanyl)anilino]-3-pyridyl]-1,3,4-oxadiazol-2-yl]pyrrolidin-2-one] the value was 6.00 to 7.00. To `C[C@]1(c2nnc(-c3cccnc3Nc3ccc(C(F)(F)F)cc3)o2)CCCNC1=O` [Compound 40, (R)-3-methyl-3-(5-(2-((4-(trifluoromethyl)phenyl)amino)pyridin-3-yl)-1,3,4-oxadiazol-2-yl)piperidin-2-one] belongs 6.00 to 7.00.

For `CNCc1nnc(-c2nccnc2Nc2ccc(C(F)(F)F)cc2)o1` [Compound 48, 3-[5-(methylaminomethyl)-1,3,4-oxadiazol-2-yl]-N-[4-(trifluoromethyl)phenyl]pyrazin-2-amine], the pIC50 was 5.52 to 6.00.

As to `CC1(c2nnc(-c3cccnc3Nc3ccc(C(F)(F)F)cc3)o2)OCCNC1=O` (stereo not drawn) [Compound 37, 2-methyl-2-(5-(2-((4-(trifluoromethyl)phenyl)amino)pyridin-3-yl)-1,3,4-oxadiazol-2-yl)morpholin-3-one], the pIC50 is not below 7.00. To `CN(C#N)CCc1nnc(-c2cccnc2Nc2ccc(C(F)(F)F)cc2)o1` [Compound 16, methyl-[2-[5-[2-[4-(trifluoromethyl)anilino]-3-pyridyl]-1,3,4-oxadiazol-2-yl]ethyl]cyanamide] belongs not below 7.00.

For `C[C@]1(n2nnc(-c3cccnc3Nc3ccc(C(F)(F)F)cc3)n2)CCNC1=O` [Compound 42, (3S)-3-methyl-3-[5-[2-[4-(trifluoromethyl)anilino]-3-pyridyl]tetrazol-2-yl]pyrrolidin-2-one], the pIC50 was not below 7.00. For `C[C@]1(c2nnc(-c3cccnc3Nc3ccc(C(F)(F)F)cc3)o2)CCNC1=O` [Compound 12, (R)-3-methyl-3-(5-(2-((4-(trifluoromethyl)phenyl)amino)pyridin-3-yl)-1,3,4-oxadiazol-2-yl)pyrrolidin-2-one] the value was not below 7.00; for `CCN(C#N)CCc1nnc(-c2cccnc2Nc2ccc(C(F)(F)F)cc2)o1` [Compound 15, ethyl-[2-[5-[2-[4-(trifluoromethyl)anilino]-3-pyridyl]-1,3,4-oxadiazol-2-yl]ethyl]cyanamide], not below 7.00; for `C[C@@]1(c2nnc(-c3cccnc3Nc3ccc(S(F)(F)(F)(F)F)cc3)o2)CCCNC1=O` [Compound 30, (3S)-3-methyl-3-[5-[2-[4-(pentafluoro-λ^6-sulfanyl)anilino]-3-pyridyl]-1,3,4-oxadiazol-2-yl]piperidin-2-one], 6.00 to 7.00. To `C[C@]1(c2nnc(-c3cccnc3Nc3ccc(S(F)(F)(F)(F)F)cc3)o2)CCCNC1=O` [Compound 29, (3R)-3-methyl-3-[5-[2-[4-(pentafluoro-λ^6-sulfanyl)anilino]-3-pyridyl]-1,3,4-oxadiazol-2-yl]piperidin-2-one] belongs not below 7.00; to `CC1(c2nnc(-c3cccnc3Nc3ccc(C(F)(F)F)cc3)o2)CCNC1=O` (stereo not drawn) [Compound 19, 3-methyl-3-(5-(2-((4-(trifluoromethyl)phenyl)amino)pyridin-3-yl)-1,3,4-oxadiazol-2-yl)pyrrolidin-2-one], not below 7.00; to `CC[C@@]1(c2nnc(-c3cccnc3Nc3ccc(S(F)(F)(F)(F)F)cc3)o2)CCCNC1=O` [Compound 21, (3S)-3-ethyl-3-[5-[2-[4-(pentafluoro-λ6-sulfanyl)anilino]-3-pyridyl]-1,3,4-oxadiazol-2-yl]piperidin-2-one], not below 7.00. To `CC[C@@]1(c2nnc(-c3cccnc3Nc3ccc(C(F)(F)F)cc3)o2)CCNC1=O` [Compound 34, (3S)-3-Ethyl-3-[5-[2-[4-(trifluoromethyl)anilino]-3-pyridyl]-1,3,4-oxadiazol-2-yl]pyrrolidin-2-one] belongs not below 7.00; to `CCN(C#N)CCc1nnc(-c2nccnc2Nc2ccc(C(F)(F)F)cc2)o1` [Compound 2, ethyl-[2-[5-[3-[4-(trifluoromethyl)anilino]pyrazin-2-yl]-1,3,4-oxadiazol-2-yl]ethyl]cyanamide], not below 7.00; to `CC[C@@]1(c2nnc(-c3cccnc3Nc3ccc(C(F)(F)F)cc3)o2)CCCNC1=O` [Compound 31, (3S)-3-ethyl-3-[5-[2-[4-(trifluoromethyl)anilino]-3-pyridyl]-1,3,4-oxadiazol-2-yl]piperidin-2-one], 6.00 to 7.00.

In the case of `C[C@@]1(c2nnc(-c3cccnc3Nc3ccc(C(F)(F)F)cc3)o2)CCCNC1=O` [Compound 39, (S)-3-methyl-3-(5-(2-((4-(trifluoromethyl)phenyl)amino)pyridin-3-yl)-1,3,4-oxadiazol-2-yl)piperidin-2-one], the pIC50 was not below 7.00. For `C[C@]1(n2nnc(-c3cccnc3Nc3ccc(S(F)(F)(F)(F)F)cc3)n2)CCNC1=O` [Compound 28, (3S)-3-methyl-3-[5-[2-[4-(pentafluoro-λ^6-sulfanyl)anilino]-3-pyridyl]tetrazol-2-yl]pyrrolidin-2-one] the value was not below 7.00; for `CNCc1nnc(-c2cccnc2Nc2ccc(C(F)(F)F)cc2)o1` [Compound 9, 3-[5-(methylaminomethyl)-1,3,4-oxadiazol-2-yl]-N-[4-(trifluoromethyl)phenyl]pyridin-2-amine], 6.00 to 7.00; for `CCN(C#N)Cc1nnc(-c2nccnc2Nc2ccc(C(F)(F)F)cc2)o1` [Compound 44, ethyl-[[5-[3-[4-(trifluoromethyl)anilino]pyrazin-2-yl]-1,3,4-oxadiazol-2-yl]methyl]cyanamide], not below 7.00.

For the molecule `CN1CCNC(=O)C1(C)c1nnc(-c2cccnc2Nc2ccc(C(F)(F)F)cc2)o1` (stereo not drawn) [Compound 25, 3,4-dimethyl-3-[5-[2-[4-(trifluoromethyl)anilino]-3-pyridyl]-1,3,4-oxadiazol-2-yl]piperazin-2-one], the pIC50 was 6.00 to 7.00. With `CC1(c2nnc(-c3cccnc3Nc3ccc(C(F)(F)F)cc3)o2)NCCNC1=O` (stereo not drawn) [Compound 26, 3-methyl-3-[5-[2-[4-(trifluoromethyl)anilino]-3-pyridyl]-1,3,4-oxadiazol-2-yl]piperazin-2-one], the pIC50 was not below 7.00. Regarding `CCN(C#N)Cc1nnc(-c2cccnc2Nc2ccc(C(F)(F)F)cc2)o1` [Compound 5, ethyl-[[5-[2-[4-(trifluoromethyl)anilino]-3-pyridyl]-1,3,4-oxadiazol-2-yl]methyl]cyanamide], the pIC50 was not below 7.00. For `CN(C#N)Cc1nnc(-c2nccnc2Nc2ccc(C(F)(F)F)cc2)o1` [Compound 45, methyl-[[5-[3-[4-(trifluoromethyl)anilino]pyrazin-2-yl]-1,3,4-oxadiazol-2-yl]methyl]cyanamide] the value was not below 7.00. For `CN(C#N)CCc1nnc(-c2nccnc2Nc2ccc(C(F)(F)F)cc2)o1` [Compound 1, methyl-[2-[5-[3-[4-(trifluoromethyl)anilino]pyrazin-2-yl]-1,3,4-oxadiazol-2-yl]ethyl]cyanamide] the value was not below 7.00; for `C[C@]1(c2nnc(-c3cccnc3Nc3ccc(S(F)(F)(F)(F)F)cc3)o2)CCNC1=O` [Compound 35, (3R)-3-methyl-3-[5-[2-[4-(pentafluoro-λ^6-sulfanyl)anilino]-3-pyridyl]-1,3,4-oxadiazol-2-yl]pyrrolidin-2-one], 6.00 to 7.00. To `CC[C@]1(c2nnc(-c3cccnc3Nc3ccc(C(F)(F)F)cc3)o2)CCCNC1=O` [Compound 32, (3R)-3-ethyl-3-[5-[2-[4-(trifluoromethyl)anilino]-3-pyridyl]-1,3,4-oxadiazol-2-yl]piperidin-2-one] belongs not below 7.00.
